Test results reported in patent publication US20130274247A1 (priority 2012, published 2013).
Read-outs that look alike come from different tables or passages of the source.

How the values were obtained:
in vivo = assay: in vivo; design: species or system cat; conditions: for AUC(0-inf) / CL/F / Cmax / Tmax / Vd/F: both sexes
From the text: In this prospective pharmacokinetic study, 6 client-owned stable CKD cats, 2 each from International Renal Interest Society (IRIS) stages II, III and IV, […] and 6 age-matched (within 6 months) healthy geriatric control cats (AMC) were enrolled by stratified convenience sampling. There were 4 spayed females and 2 neutered males in the CKD group and 3 spayed females and 3 neutered males in the AMC group. […] Diagnostic tests required before enrollment included a minimum database consisting of serum biochemistry profile, CBC, urinalysis, urine culture, blood pressure, and serum total thyroxine concentration. […] Exclusion criteria included other systemic illnesses, complications of CKD such as hypertension, pyelonephritis or ureteral obstruction, or decompensation of CKD requiring hospitalization and IV fluid therapy. The project was approved by the Institutional Animal Care and Use Committee at Colorado State University, and all owners gave written informed consent before participation. […] Samples were centrifuged within 10 minutes of collection and serum was harvested and stored at —80° C. until analysis. […] Pharmacokinetic analysis was performed using a non-compartmental method. Area under the curve to infinity (AUC∞), disappearance half-life (t½^λ), time to maximum serum concentration (Tmax), and maximum serum concentration (Cmax) were calculated. […] The terminal elimination rate was used for estimating the accumulation factor as the applicable kel, and the dosing interval (T) was set at 24 or 48 hours. Comparison of pharmacokinetic parameters between the CKD and AMC cat groups was performed using a Mann-Whitney U-test. Prism software© was used for all analyses.

CKD cats = assay: Effect of mirtazapine on weight, appetite, activity and vomiting in CKD cats; assay type: in vivo, cat; conditions: 1.88 mg every other day for three weeks
From the text: FIG. 1. […] FIG. 2. […] FIG. 3. […] FIG. 4.

[1] = Stability of compounded 1.88 mg mirtazapine capsules (LC/MS/MS); assay type: physicochemical; conditions: compounded 1.88 mg capsules
From the text: The method used is guaranteed to produce accurate compounding to within 10% of the target dose.

[2] = cited from earlier work
young normal cats = conditions: cited from earlier work
[3] = humans; cited from earlier work
cats = conditions: cited from earlier work

CN1CCN2c3ncccc3Cc3ccccc3C2C1 (stereo not shown) [mirtazapine]
difference in AUC∞ between AMC cats and CKD cats (in vivo): statistically significant difference
AUC(0-inf) (in vivo; po, 1.88 mg, Mean ± SD): 590 ± 185 ng·h/mL
AUC(0-inf) (in vivo; po, 1.88 mg, Median): 561 ng·h/mL
CL/F (in vivo; po, 1.88 mg, Mean ± SD): 13.2 mL/min/kg
CL/F (in vivo; po, 1.88 mg, Median): 12.2 mL/min/kg
Cmax (in vivo; po, 1.88 mg, Mean ± SD): 79.6 ± 21.7 ng/mL
Cmax (in vivo; po, 1.88 mg, Median): 83.6 ng/mL
Tmax (in vivo; po, 1.88 mg, Mean ± SD): 2 ± 1.5 h
Tmax (in vivo; po, 1.88 mg, Median): 1 h
Vd/F (in vivo; po, 1.88 mg, Mean ± SD): 13.9 ± 3.2 L
Vd/F (in vivo; po, 1.88 mg, Median): 14.4 L
CL/F, Mean ± SD (in vivo; both, po, 1.88 mg): 10.2 mL/min/kg
CL/F, Median (in vivo; both, po, 1.88 mg): 10 mL/min/kg
Cmax, Mean ± SD (in vivo; both, po, 1.88 mg): 110.6 ± 30.8 ng/mL
Cmax, Median (in vivo; both, po, 1.88 mg): 109.5 ng/mL
AUC∞, Mean ± SD (in vivo; po, 1.88 mg): 866.5 ± 257.9 ng·h/mL
AUC∞, Median (in vivo; po, 1.88 mg): 828.4 ng·h/mL
Vd/F, Mean ± SD (in vivo; po, 1.88 mg): 13.6 ± 2.0 L
Vd/F, Median (in vivo; po, 1.88 mg): 13.4 L
Effect on weight (CKD cats; p=0.002): statistically significant increase
Effect on activity (CKD cats; p=0.02): statistically significant increase
Effect on appetite score (CKD cats; p=0.02): statistically significant increase
Effect on vomiting (CKD cats; p=0.047): statistically significant decrease
stability as formulated [1]: at least 6 months
mean AUC ([2]; normal cats, previously reported): 397 ng/mL/h
mean CL/F ([2]; young healthy cats): 18.3 mL/min/kg
food consumption as compared to placebo (young normal cats; 1.88 mg/cat): increased food consumption
food consumption as compared to placebo (young normal cats; 3.75 mg/cat): increased food consumption
appetite stimulation (young normal cats; dose of 1.88 mg): significantly stimulates appetite
AUC in young men compared to women [3]: lower
other reported adverse effects (hyperexcitability, muscle tremors) (cats): mild and dose dependent
